From US20180353512A1, “COMBINATION THERAPIES FOR TREATING B-CELL MALIGNANCIES” (GILEAD SCIENCES, INC., priority 2015, published 2018)

Columns and labels:
Carnaval cells = experiment: ATPLite anti-proliferation assay (GI) and synergy score, 120 h; type: cell-based
Experimental: (§1) The endpoint readout of the anti-proliferation assay was based upon quantitation of ATP as an indicator of viable cells. Cells were thawed from a liquid nitrogen preserved state. Once cells had been expanded and divided at their expected doubling times, screening began. Cells were seeded in growth media in black 384-well tissue culture treated plates at 500 cells per well (except where noted in Analyzer). Cells were equilibrated in assay plates via centrifugation and placed in incubators attached to the Dosing Modules at 37° C. for twenty-four hours before treatment. […] These Tzero (T0) plates were read using ultra-sensitive luminescence on Envision Plate Readers. Treated assay plates were incubated with the compound for one hundred twenty hours. After one hundred twenty hours, plates were developed for endpoint analysis using ATPLite. All data points were collected via automated processes; quality controlled; and analyzed using Horizon CombinatoRx proprietary software. Assay plates were accepted if they pass the following quality control standards: relative luciferase values were consistent throughout the entire experiment, Z-factor scores were greater than 0.6, untreated/vehicle controls behaved consistently on the plate.
(§2) Horizon Discovery utilized Growth Inhibition (GI) as a measure of cell viability. The cell viability of vehicle was measured at the time of dosing (T0) and after one hundred twenty hours (T120). A GI reading of 0% represented no growth inhibition—cells treated with compound and T120 vehicle signals were matched. […] A GI 200% represents complete death of all cells in the culture well. Compounds reaching an activity plateau of GI 200% were considered cytotoxic. Horizon CombinatoRx calculates GI by applying the following test and equation: […]
(§3) To measure combination effects in excess of Loewe additivity, Horizon Discovery has devised a scalar measure to characterize the strength of synergistic interaction termed the Synergy Score. The Synergy Score was calculated as:
(§4) Synergy Score=log fx log fyΣmax(0,Idata)(Idata−ILoewe)
(§5) The fractional inhibition for each component agent and combination point in the matrix was calculated relative to the median of all vehicle-treated control wells. The Synergy Score equation integrated the experimentally-observed activity volume at each point in the matrix in excess of a model surface numerically derived from the activity of the component agents using the Loewe model for additivity. Additional terms in the Synergy Score equation (above) were used to normalize for various dilution factors used for individual agents and to allow for comparison of synergy scores across an entire experiment. The inclusion of positive inhibition gating or an Idata multiplier removed noise near the zero effect level, and biased results for synergistic interactions at that occur at high activity levels.
(§6) The cell viability of vehicle was measured at the time of dosing (T0) and after 120 h (T120). […] To measure combination effects, excess of Loewe additivity was used to characterize the strength of synergistic interaction, termed the synergy score. The assay and synergy score analysis were performed in accordance with the protocol set forth in Example 1B above.
(§7) The assay and synergy score analysis were performed in accordance with the protocol set forth in Example 3A above.

HBL-1 cells = experiment: as above; type: cell-based
Experimental: as §1, §2, §3, §4, §5, §6, §7

OCI-Ly3 cells = experiment: as above; type: cell-based
Experimental: as §1, §2, §3, §4, §5, §6, §7

OCI-Ly4 cells = experiment: as above; type: cell-based
Experimental: as §1, §2, §3, §4, §5, §6, §7

Pfeiffer cells = experiment: as above; type: cell-based
Experimental: as §1, §2, §3, §4, §5, §6, §7

Ri-1 cells = experiment: as above; type: cell-based
Experimental: as §1, §2, §3, §4, §5, §6, §7

SU-DHL-10 cells = experiment: as above; type: cell-based
Experimental: as §1, §2, §3, §4, §5, §6, §7

SU-DHL-2 cells = experiment: as above; type: cell-based
Experimental: as §1, §2, §3, §4, §5, §6, §7

SU-DHL-6 cells = experiment: as above; type: cell-based
Experimental: as §1, §2, §3, §4, §5, §6, §7

SU-DHL-8 cells = experiment: as above; type: cell-based
Experimental: as §1, §2, §3, §4, §5, §6, §7

TMD-8 cells = experiment: as above; type: cell-based
Experimental: as §1, §2, §3, §4, §5, §6, §7

U2932 cells = experiment: as above; type: cell-based
Experimental: as §1, §2, §3, §4, §5, §6, §7

U2973 cells = experiment: as above; type: cell-based
Experimental: as §1, §2, §3, §4, §5, §6, §7

pIκBa S32 = experiment: Peggy Sue analysis of TMD-8 Ibrutinib resistant lines; type: cell-based; conditions: idelalisib 420 nM, Compound B 320 nM
Experimental: Lysates were also analyzed by Simple Western using Peggy Sue (ProteinSimple). A standard curve using recombinant proteins was generated to measure PI3K isoform levels on Peggy Sue; data was processed using Compass software (ProteinSimple).
Total protein expression levels and phosphorylation of PI3K, MAPK, BTK and NF-κB components were determined by Western Blot or Peggy Sue. Cells were treated with idelalisib (420 nM), Compound B (320 nM) or in combination. Protein expression level and phosphoproteomics were determined using Western Blot (p-ERK 1/2, p-AKT S473, total AKT) and Peggy Sue (p-BTK, p-IκBα S32, total IκBα), using procedures as described in Example 3B. Results were quantitated after determining the AUC for each group and normalized to DMSO vehicle control.

p-BTK = experiment: Western Blot / Peggy Sue in TMD8^R cells (Example 7); type: cell-based; conditions: idelalisib 420 nM, Compound B 320 nM
Experimental: Idelalisib-resistant (TMD8^R) cell line and passage-matched Idelalisib-sensitive (TMD8^S) cell line were generated according to the procedure described in Example 5 above. To characterize the resistant cells, cell viability assays, RNASeq of multidrug resistance (MDR) family of ABC transporter genes (N=33), apoptosis assays, and phosphoprotein analysis were performed. Cell viability was measured using CellTiter-Glo, as described in Example 1A above. Western blot and protein level analysis were performed after treatment with 420 nM idelalisib, 320 nM Compound B and combination thereof, using Peggy Sue (ProteinSimple) automated Western Blot system. Protein concentration (pg/μL) was quantitated using recombinant protein standards. Normalized AUC were determined for each of the treatment groups, normalized to actin. Apoptosis was assessed by propidium iodide and Annexin V/FITC staining and measured by flow cytometry, as described in Example 1A above. Western Blot with anti-p-AKT (S473) antibody and Peggy Sue were used to determine the phosphorylation state of downstream signaling components.

[1] = test system: A20 mutant (TNFAIP3 Q143*) TMD-8 cells; experiment: 96-hour Cell Titer Glo viability assay, Ibrutinib-resistant TMD-8; conditions: for EC50: Homo sapiens, TMD8, read-out: EC50, cell viability; for sensitivity in cell viability assay: TMD8^A20-Q143*, 96 h
[2] = A20-Q143* line, normalized to DMSO control, DMSO 1.39
[3] = control line, normalized to DMSO vehicle control

## CCC(Nc1ncnc2[nH]cnc12)c1nc2cccc(F)c2c(=O)n1-c1ccccc1 (stereo not drawn) [Idelalisib, 2-(1-((9H-Purin-6-yl)amino)propyl)-5-fluoro-3-phenylquinazolin-4(3H)-one]
Carnaval cells
  Max. Effect (% GI): 62 % GI
HBL-1 cells
  Max. Effect (% GI): 29 % GI
OCI-Ly3 cells
  Max. Effect (% GI): 20 % GI
OCI-Ly4 cells
  Max. Effect (% GI): 194 % GI
Pfeiffer cells
  Max. Effect (% GI): 33 % GI
Ri-1 cells
  Max. Effect (% GI): 78 % GI
SU-DHL-10 cells
  Max. Effect (% GI): 0 % GI
SU-DHL-2 cells
  Max. Effect (% GI): 8 % GI
SU-DHL-6 cells
  Max. Effect (% GI): 110 % GI
SU-DHL-8 cells
  Max. Effect (% GI): 43 % GI
TMD-8 cells
  Max. Effect (% GI): 155 % GI
U2932 cells
  Max. Effect (% GI): 61 % GI
U2973 cells
  Max. Effect (% GI): 85 % GI
pIκBa S32; [2]
  pIκBa S32: 0.92
pIκBa S32; [3]
  pIκBa S32: 1.09
p-BTK
  p-BTK: not
[1]
  EC50: ≥ 4.3 µM
  sensitivity in cell viability assay: resistant

## CC#CC(=O)N1CC[C@@H](n2c(=O)n(-c3ccc(Oc4ccccc4)cc3)c3c(N)ncnc32)C1 [Compound B, 6-amino-9-[(3R)-1-(2-butynoyl)-3-pyrrolidinyl]-7-(4-phenoxyphenyl)-7,9-dihydro-8H-purin-8-one]
Carnaval cells
  Max. Effect (% GI): 0 % GI
HBL-1 cells
  Max. Effect (% GI): 65 % GI
OCI-Ly3 cells
  Max. Effect (% GI): 0 % GI
OCI-Ly4 cells
  Max. Effect (% GI): 25 % GI
Pfeiffer cells
  Max. Effect (% GI): 8 % GI
Ri-1 cells
  Max. Effect (% GI): 48 % GI
SU-DHL-10 cells
  Max. Effect (% GI): 0 % GI
SU-DHL-2 cells
  Max. Effect (% GI): 18 % GI
SU-DHL-6 cells
  Max. Effect (% GI): 24 % GI
SU-DHL-8 cells
  Max. Effect (% GI): 1 % GI
TMD-8 cells
  Max. Effect (% GI): 98 % GI
U2932 cells
  Max. Effect (% GI): 81 % GI
U2973 cells
  Max. Effect (% GI): 14 % GI
pIκBa S32; [2]
  pIκBa S32: 1.12
pIκBa S32; [3]
  pIκBa S32: 0.62
p-BTK
  p-BTK: inhibited
[1]
  EC50: > 10 µM
  sensitivity in cell viability assay: resistant
